Earlier results as cited in US20230405018A1, “FLUMAZENIL FORMULATIONS FOR SUBCUTANEOUS INJECTION AND METHODS OF TREATMENT USING GABA RECEPTOR MODULATORS” (Bexson Biomedical, Inc., priority 2020, published 2023).
Read-outs that look alike come from different tables or passages of the source.

Legend:
[1] = reported
[2] = acidic USP flumazenil preparations (pH ~4)
[3] = system: benzodiazepine withdrawal symptoms

Row | Compound | Solubility of SBE-β-CD [1] [g/mL] | Systemic availability after first pass hepatic metabolism (in vivo) | Oral bioavailability (in vivo, po) | Half-life (rapid metabolism in the liver) [min] | Solubility / concentration of flumazenil in USP preparations [2] [mg/mL] | Effect on withdrawal, craving and cessation ([3]; bolus administrations in conjunction with benzodiazepine tapering) | Effect on withdrawal symptoms ([3]; continuous 2 mg/24 h over 96 h by IV with oxazepam tapering) | Effect on withdrawal symptoms ([3]; ~1-2 mg bolus over several hours, high dose benzodiazepine patients abstinent at least three weeks)
1 | sulfobutyl-ether-beta-cyclodextrin [SBE-β-CD] | 0.6 |  |  |  |  |  |  | 
2 | CCOC(=O)c1ncn2c1CN(C)C(=O)c1cc(F)ccc1-2 [flumazenil, ethyl 8-fluoro-5,6-dihydro-5-methyl-6-oxo-4H-imidazo[1,5-a][1,4] benzodiazepine-3-carboxylate] |  | less than 25% | extremely limited and poor | 4 to 11 | ~0.1 | reduction of benzodiazepine withdrawal symptoms, reduced craving, and increased completion of cessation of benzodiazepines without relapse | drastically curtail withdrawal symptoms | reduce withdrawal symptoms
